Reference: patent US20250043349A1, “DEORPHANIZING ODORS USING SINGLE CELL SEQUENCING” (PRESIDENT AND FELLOWS OF HARVARD COLLEGE, priority 2021, published 2025)

What was measured:
M72 (Olfr160) = assay: Act-Seq activation score in OSNs expressing M72; type: in vivo, mouse; settings: compared with acetophenone
Experimental: Act-Seq (Wu et al., 2017) was performed following odor exposure to quantify odor-evoked responses in each OSN subtype (defined by their expressed OR) across the entire OR repertoire. Mice were habituated to a reversed light cycle for at least for 1 week before odor exposure, transferred to a new disposable cage with regular bedding/food and kept overnight in a satellite animal facility. On the experimental day, each mouse was first transferred to a new empty disposable cage during the dark cycle and habituated for 20 minutes. Empty cages were used to avoid any activation by odorants present within the environments in which the mice were housed. Odors were added to a piece of filter paper (100 μL of odorant) in a 35 mm petri dish and a cotton ball (200 μL of odorant) and placed in each cage. […]
The remaining 169 activation genes that were also considered as HVGs often had weak loadings across multiple GEPs. […] To summarize the effects of odor activation across this set of activation genes, the TPT-expression of these activation genes were z-scored (using means and standard deviations for these genes in the control, acetophenone, and octanal datasets, identified by subsampling equal numbers of cells across all ORs expressed in at least 6 cells across 100 restarts). […] PCA was performed on the differences in z-scored activation gene expression between control and odor conditions. […]

M72 receptor = settings: Arneodo et al. 2018; Zhang et al. 2012; cited from earlier work
OR10A6 [1] = target: T1, OR10A6 (Homo sapiens, UniProt Q8NH74); settings: previous study (doi.org/10.3390/molecules25204743); cited from earlier work
T1 sequence (Q8NH74 1-314): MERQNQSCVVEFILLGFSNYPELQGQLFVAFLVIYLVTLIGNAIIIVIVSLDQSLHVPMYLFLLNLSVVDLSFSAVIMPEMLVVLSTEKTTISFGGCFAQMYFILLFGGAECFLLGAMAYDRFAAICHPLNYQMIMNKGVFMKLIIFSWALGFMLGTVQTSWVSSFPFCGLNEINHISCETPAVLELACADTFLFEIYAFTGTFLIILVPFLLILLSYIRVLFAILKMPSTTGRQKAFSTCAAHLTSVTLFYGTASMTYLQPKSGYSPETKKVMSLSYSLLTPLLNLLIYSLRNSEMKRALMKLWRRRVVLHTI

OR10A6 [2] = target: T1, OR10A6; assay: In vivo human act-seq: nasal swab after 1 hour exposure, IEG expression in OSNs; set-up: endogenous in cells; host or cells: olfactory sensory neurons of a human subject, exposed in vivo and collected by nasal swab; settings: human subject
Experimental: FIG. 16A-16D show in vivo human act-seq data. FIG. 16A depicts a UMAP plot showing olfactory cells obtained from a human subject using a nasal swab after 1 hour exposure to 2-phenylethanol, which smells like rose oil. 1 hour exposure is performed by asking the subject to sniff the odor vial every 2-5 minutes. All major olfactory cell types were identified. OSN: olfactory sensory neuron lineage (progenitors and immature or mature neurons). SUS: sustentacular cells. HBC: horizontal basal cell. MV: microvillar cells. BG: Bowman's gland cells. FIG. 16B examines total count normalized expression of GFY gene (a mature OSN marker) in the UMAP plot. FIG. 16C examines total count normalized expression of immediate early genes (IEG) in OSNs that expressed odorant receptors (OR). […] Horizontal bars indicate mean across cells.

olfactory bulb glomeruli = assay: In vivo olfactory bulb imaging of OSN axons (GCaMP glomerular odor responses); set-up: species or system mouse; settings: odor panel, anesthetized mice
Experimental: All surgical procedures were performed in accordance with the guidelines provided by IACUC at Harvard Medical School. Prior to surgery. 4-6 weeks old Omp-IRES-Cre: Ai951) (GCaMP6f) mice, were subcutaneously injected with the analgesic Buprenorphine-SR (1 mg/kg) and anesthetized 1-2 hours later with isoflurane (3% induction. 1-2% maintenance). The skin overlying the left olfactory bulb was retracted and the underlying periosteum was scraped off with a scalpel. The skull was subsequently cleaned with saline and allowed to dry. A 2.5 mm circular craniotomy was made using a biopsy punch (Integra Miltex) taking care not to damage the underlying dura. Gelfoam saturated with cold saline was placed over the craniotomy to reduce swelling and suppress minor bleeds. A custom cranial window was constructed using two circular coverslips (Warner Instruments, 3 mm. #1 thickness). […]
Chronic imaging of the dorsal surface of the olfactory bulb was performed after recovery from the surgery (1-2 weeks) under ketamine (100 mg/kg) and xylazine (10 mg/kg) induced anesthesia, to specifically isolate responses in OSN axons with less modulation from local interneurons and long-range cortical feedback. Depth of anesthesia was assessed every 15 minutes via the toc-pinch reflex and intraperitoneal ketamine was administered at 1/3 concentration of the induction dose for anesthesia maintenance. […]

[3] = tested on: OSN subtypes (odorant receptors, ORs); assay: Act-Seq: scSeq of olfactory epithelium after two-hour odor exposure (IEG expression, activated ORs, activation score); type: in vivo, mouse
Experimental: Act-Seq (Wu et al., 2017) was performed following odor exposure to quantify odor-evoked responses in each OSN subtype (defined by their expressed OR) across the entire OR repertoire. Mice were habituated to a reversed light cycle for at least for 1 week before odor exposure, transferred to a new disposable cage with regular bedding/food and kept overnight in a satellite animal facility. On the experimental day, each mouse was first transferred to a new empty disposable cage during the dark cycle and habituated for 20 minutes. Empty cages were used to avoid any activation by odorants present within the environments in which the mice were housed. Odors were added to a piece of filter paper (100 μL of odorant) in a 35 mm petri dish and a cotton ball (200 μL of odorant) and placed in each cage. After 2 hours, mice were euthanized, and dissociation was performed as described below. Odors used in this study were as follows. Dipropylene glycol (DPG, control solvent), and 10% of acetophenone, octanal, 2-hydroxy acetophenone, 4-methyl acetophenone, and methyl salicylate. As a control, mice were exposed to DPG alone for 30 min. This control condition was used to account for any drift in transcriptomes during the overnight housing and habituation periods prior to odor exposure and designed to capture the transcriptome in the state it would have been in the odor-exposed animals prior to odor exposure. […] Act-Seq was also performed using lower concentrations of acetophenone (1.0, 0.1, 0.01%) and 2-hydroxy acetophenone (0.1%, 0.01%). All odor dilutions were made with DPG, and all odors and DPG were obtained from Sigma. To assess the persistence of any transcriptional changes observed as a result of odor exposure, a cohort of mice was exposed to acetophenone or DPG for 2 hours, transferred to new clean regular home cages, and subjected to scSeq after an additional 22 hours.
The main olfactory epithelium was dissected in Earle's Balanced Salt Solution (EBSS, pre-treated with carbogen for at least 5 minutes before each use, Worthington), then transferred to a round-bottomed glass dish containing 750 μL of papain solution (one vial of Papain (Worthington) dissolved in 5 mL of EBSS and then equilibrated 10 minutes at 37° C.) and 100 μL of DNase solution (one vial of DNase-I (Worthington) dissolved in 500 μL of EBSS). Bone was removed from the epithelium under a dissecting microscope and the resulting epithelial tissue was placed in a 5 mL tube (Becton Dickinson) with an additional 1.75 mL of Papain solution and 200 μL of DNase-I solution and rocked gently for-60 minutes at 37° C. The tissue was then gently triturated with a 5 mL pipette 10-15 times, passed through a 40 μm cell strainer (Becton Dickinson), and washed with 1 mL of Hibernate-A medium containing 10% Fetal Bovine Serum (FBS. GIBCO). Filtered cells were transferred to a new 5 mL tube and centrifuged 5 minutes at 300×g. The supernatant was decanted, the cells were washed once with 4 mL Hibernate-A containing 10% FBS and resuspended in 1 mL Hibernate-A containing 0.2% FBS. Importantly, each of the solutions above contained transcriptional inhibitors (5 μg/mL of Actinomycin D, 10 μg/mL of Anisomycin and 10 μM of Triptolide, all obtained from Sigma) for all experiments, especially the Act-Seq experiments, except where noted.
OSN subtypes that were responsive to odorants were identified via a two-step process. First, individual OSNs (as defined by the expressed OR) were determined as activated based on their mean z-scored immediate early genes (IEG) expression. A set of 10 IEGs were used (Btg2, Egr1, Fos, Fosb, Gm13889, Junb, Nr4a1, Nr4a2, Pcdh10, and Srxn1). […] The set of 10 IEGs was used since even though all of the IEGs were specific to acute activation by odors, they were still only detected in a minority of cells due to the sparse nature of scSeq. […]

2-hydroxyacetophenone
activation scores in OSNs expressing M72 (M72 (Olfr160)): higher activation scores than acetophenone | binding to the M72 receptor relative to acetophenone (M72 receptor): binds more strongly to the M72 receptor

OCCc1ccccc1 [2-phenylethanol]
activation of OR10A6 in vitro (OR10A6 [1]): activated | mean total count normalized expression of 9 IEGs in OSNs expressing OR10A6 vs other ORs (OR10A6 [2]): much higher IEG expression

CCCCC=O [Pentanal]
breadth of responses across the population of glomeruli (olfactory bulb glomeruli): broadest responses across the population of glomeruli

CCCCCCCC=O [octanal]
overlap between ORs activated by ACE and OCT, odds ratio ([3]; Fisher's exact test, overlap at chance levels): 1.42 | z-scored expression of 10 immediate early genes (IEGs) for each OSN subtype, odor vs control ([3]; odor vs control (DPG) conditions): higher in the odor conditions
